Reference: patent US20260226068A1, “IMIDAZOTRIAZINE IL-17A MODULATORS AND USES THEREOF” (DICE ALPHA, INC., priority 2023, published 2026)
Blank lines part the entries; values can stand above or below the compound they belong to.

Assays:
IL-17A/A = target: T1, IL-17A/A (Homo sapiens, UniProt Q16552); assay: IL-17A/A HEK-Blue cell assay (SEAP reporter); format: cell-based; conditions: HEK-Blue IL-17A reporter cells, IL17A/A 5 ng/mL, 20 hours, SEAP read at A630; read-out: HEK-Blue IL17AA (IC50 for IL-17A/A inhibition)
T1 construct: purchased Genscript Z03228
T1 sequence (Q16552 24-155): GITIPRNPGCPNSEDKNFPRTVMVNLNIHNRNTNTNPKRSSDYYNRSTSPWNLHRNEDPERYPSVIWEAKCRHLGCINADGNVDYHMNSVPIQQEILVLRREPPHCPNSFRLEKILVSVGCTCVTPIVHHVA
Method: (§1) The HEK-Blue IL-17A reporter cell line (Fisher #NC 1408637) was used for cell-based IL-17A/A inhibition assays. Cells were grown and prepared for assays according to the manufacturer's instructions. This cell line consists of HEK 293 cells that were designed to expressed IL-17RA, IL-17RC, and the Act1 adapter molecule, the combination of which, when stimulated by IL-17A/A or IL17A/F activates a […] promoter and drives expression of the recombinant Secreted Alkaline Phosphatase (SEAP) gene. Media from the cells is then added to a development reagent (Quanti-Blue Substrate, Fisher #NC971 1613), and read at A630.
(§2) Compounds were dispensed in DMSO to an empty clear 384-well tissue culture plate in a titration ranging from 10 μM to 27 pM, with DMSO added to every well to a final concentration of […]. Cells were then added to the plate (45 μL/well at a concentration of 280,000 cells/mL). IL17A/A (Genscript #Z03228) or IL17A/F (R&D Systems) was added to the plate to a final concentration of 5 ng/mL and a final well volume of 50 μL. The cells, compound, and IL-17A/A or IL17A/F were then incubated for 20 hours before media was removed for SEAP analysis. The resulting inhibition curve was then analyzed using Dotmatics' integrated 4-parameter fit screening protocol to generate IC50 values.
(§3) Table 2 includes IC50 values for IL-17A/A and IL-17A/F inhibition of selected compounds; with compounds having a IC50 of A<100 nM; B 100-1000 nM; and C>1000 nM.

IL-17A/F = target: T2, IL-17A/F (Homo sapiens, UniProt Q16552+Q96PD4); assay: IL-17A/F HEK-Blue cell assay (SEAP reporter); format: cell-based; conditions: HEK-Blue IL-17A reporter cells, IL17A/F 5 ng/mL, 20 hours, SEAP read at A630; read-out: HEK-Blue IL17AF (IC50 for IL-17A/F inhibition)
T2 construct: purchased R&D Systems
T2 sequence (Q16552 24-155): T1 sequence (Q16552 24-155)
T2 sequence (Q96PD4 31-163): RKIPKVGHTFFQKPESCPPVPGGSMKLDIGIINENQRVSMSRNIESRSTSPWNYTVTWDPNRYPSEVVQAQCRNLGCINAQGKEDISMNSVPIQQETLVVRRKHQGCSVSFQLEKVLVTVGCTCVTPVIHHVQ
Method: as §1, §2, §3

Compound: CCn1nccc1C(=O)N[C@H](c1cn2nc(CC3C[C@@H](C(F)(F)F)CNC3=O)c(N3CCOCC3)nc2n1)C1CCC(F)(F)CC1 (mixture of isomers) [Compound 19, N-((1S)-(4,4-difluorocyclohexyl)(3-morpholino-2-(((5R)-2-oxo-5-(trifluoromethyl)piperidin-3-yl)methyl)imidazo[1,2-b][1,2,4]triazin-6-yl)methyl)-1-ethyl-1H-pyrazole-5-carboxamide]
IC50 (IL-17A/A): 0.1 to 1 µM
IC50 (IL-17A/F): > 1 µM

Compound: CCn1nccc1C(=O)N[C@H](c1cn2nc(CC3C[C@@H](C(F)(F)F)CNC3=O)cnc2n1)[C@H]1CC[C@H](C)CC1 (single isomer, unassigned) [Compound 2]
IC50 (IL-17A/A): 0.1 to 1 µM
IC50 (IL-17A/F): > 1 µM

Compound: CCn1nccc1C(=O)N[C@H](c1cn2nc(CC3C[C@@H](C(F)(F)F)CNC3=O)c(N3CCOCC3)nc2n1)C1CCC(F)(F)CC1 (single isomer, unassigned) [Compound 18]
IC50 (IL-17A/A): < 0.1 µM
IC50 (IL-17A/F): > 1 µM

Compound: CCn1nccc1C(=O)N[C@H](c1cn2nc(CC3C[C@@H](C(F)(F)F)CNC3=O)c(N3CCOCC3)nc2n1)[C@H]1CC[C@H](C)CC1 (single isomer, unassigned) [Compound 23]
IC50 (IL-17A/A): < 0.1 µM
IC50 (IL-17A/F): > 1 µM

Compound: CCn1nccc1C(=O)N[C@H](c1cn2nc(C[C@H]3C[C@@H](C(F)(F)F)CNC3=O)cnc2n1)[C@@H]1CCCC(F)(F)C1 (single isomer, unassigned) [Compound 31]
IC50 (IL-17A/A): 0.1 to 1 µM
IC50 (IL-17A/F): > 1 µM

Compound: CCn1nccc1C(=O)N[C@H](c1cn2nc(CC3C[C@@H](C(F)(F)F)CNC3=O)c(N(C)C)nc2n1)C1CCC(F)(F)CC1 (single isomer, unassigned) [Compound 48]
IC50 (IL-17A/A): < 0.1 µM
IC50 (IL-17A/F): 0.1 to 1 µM

Compound: CCn1nccc1C(=O)N[C@H](c1cn2nc(CC3C[C@@H](C(F)(F)F)CNC3=O)c(N(C)C)nc2n1)C1CCC(F)(F)CC1 (single isomer, unassigned) [Compound 49]
IC50 (IL-17A/A): < 0.1 µM
IC50 (IL-17A/F): > 1 µM

Compound: CCn1nccc1C(=O)N[C@H](c1cn2nc(CC3C[C@H](C(F)(F)F)CNC3=O)c(N3CCOCC3)nc2n1)C1CCC(F)(F)CC1 (single isomer, unassigned) [Compound 50]
IC50 (IL-17A/A): 0.1 to 1 µM
IC50 (IL-17A/F): > 1 µM

Compound: CCn1nccc1C(=O)N[C@H](c1cn2nc(CC3C[C@H](C(F)(F)F)CNC3=O)c(N(C)C)nc2n1)C1CCC(F)(F)CC1 (single isomer, unassigned) [Compound 51]
IC50 (IL-17A/A): 0.1 to 1 µM
IC50 (IL-17A/F): > 1 µM

Compound: CCn1nccc1C(=O)N[C@H](c1cn2nc(CC3C[C@H](C(F)(F)F)CNC3=O)c(N3CCOCC3)nc2n1)C1CCC(F)(F)CC1 (single isomer, unassigned) [Compound 54]
IC50 (IL-17A/A): < 0.1 µM
IC50 (IL-17A/F): 0.1 to 1 µM

Compound: CCn1nccc1C(=O)N[C@H](c1cn2nc(CC3C[C@H](C(F)(F)F)CNC3=O)c(N(C)C)nc2n1)C1CCC(F)(F)CC1 (single isomer, unassigned) [Compound 55]
IC50 (IL-17A/A): < 0.1 µM
IC50 (IL-17A/F): 0.1 to 1 µM

Compound: CCn1nccc1C(=O)N[C@H](c1cn2nc(C[C@H]3C[C@@H](C(F)(F)F)CNC3=O)c(C3CCOC3)nc2n1)C1CCC(F)(F)CC1 (single isomer, unassigned) [Compound 62]
IC50 (IL-17A/A): < 0.1 µM
IC50 (IL-17A/F): 0.1 to 1 µM

Compound: CCn1nccc1C(=O)N[C@H](c1cn2nc(CC3CC(F)(F)CNC3=O)c(N3CCOCC3)nc2n1)C1CCC(F)(F)CC1 (single isomer, unassigned) [Compound 64]
IC50 (IL-17A/A): < 0.1 µM
IC50 (IL-17A/F): > 1 µM

Compound: CCn1nccc1C(=O)N[C@H](c1cn2nc(CC3CC(F)(F)CNC3=O)c(N3CCOCC3)nc2n1)C1CCC(F)(F)CC1 (single isomer, unassigned) [Compound 65]
IC50 (IL-17A/A): < 0.1 µM
IC50 (IL-17A/F): > 1 µM

Compound: CCn1nccc1C(=O)N[C@H](c1cn2nc(C[C@H]3C[C@@H](C(F)(F)F)CNC3=O)c(C3CCCOC3)nc2n1)[C@H]1CCCC(F)(F)C1 (single isomer, unassigned) [Compound 68]
IC50 (IL-17A/A): < 0.1 µM
IC50 (IL-17A/F): < 0.1 µM

Compound: CCn1nccc1C(=O)N[C@H](c1cn2nc(C[C@H]3C[C@@H](C(F)(F)F)CNC3=O)c(C3CCCOC3)nc2n1)[C@@H]1CCCC(F)(F)C1 (single isomer, unassigned) [Compound 71]
IC50 (IL-17A/A): < 0.1 µM
IC50 (IL-17A/F): 0.1 to 1 µM

Compound: CCn1nccc1C(=O)N[C@H](c1cn2nc(CC3C[C@H](C(F)(F)F)CNC3=O)cnc2n1)C1CCC(F)(F)CC1 (stereo partly drawn) [Compound 14, N—((S)-(4,4-difluorocyclohexyl)(2-(((5S)-2-oxo-5-(trifluoromethyl)piperidin-3-yl)methyl)imidazo[1,2-b][1,2,4]triazin-6-yl)methyl)-1-ethyl-1H-pyrazole-5-carboxamide]
IC50 (IL-17A/A): 0.1 to 1 µM

Compound: CCn1nccc1C(=O)N[C@H](c1cn2nc(C[C@H]3C[C@H](C(F)(F)F)CNC3=O)cnc2n1)C1CCC(F)(F)CC1 [Compound 52]
IC50 (IL-17A/A): 0.1 to 1 µM

Compound: CC(C)n1nccc1C(=O)N[C@H](c1cn2nc(C[C@@H]3C[C@@H](C(F)(F)F)CNC3=O)cnc2n1)C1CCC(F)(F)CC1 [Compound 202]
IC50 (IL-17A/A): 0.1 to 1 µM

Compound: CCn1nccc1C(=O)N[C@H](c1cn2nc(C[C@H]3C[C@@H](C(F)(F)F)CNC3=O)c(C(C)(C)F)nc2n1)C1CCC(F)(F)CC1 [Compound 233, N—((S)-(4,4-difluorocyclohexyl)(3-(2-fluoropropan-2-yl)-2-(((3R,5R)-2-oxo-5-(trifluoromethyl)piperidin-3-yl)methyl)imidazo[1,2-b][1,2,4]triazin-6-yl)methyl)-1-ethyl-1H-pyrazole-5-carboxamide]
IC50 (IL-17A/A): < 0.1 µM

Results, then the compound that gave them:

IC50 (IL-17A/A): < 0.1 µM
IC50 (IL-17A/F): > 1 µM
Compound: CCn1nccc1C(=O)N[C@H](c1cn2nc(CC3C[C@@H](C(F)(F)F)CNC3=O)cnc2n1)[C@H]1CC[C@H](C)CC1 (single isomer, unassigned) [Compound 1]

IC50 (IL-17A/A): < 0.1 µM
IC50 (IL-17A/F): > 1 µM
Compound: CCn1nccc1C(=O)N[C@H](c1cn2nc(CC3C[C@@H](C(F)(F)F)CNC3=O)cnc2n1)C1CCC(F)(F)CC1 (single isomer, unassigned) [Compound 4]

IC50 (IL-17A/A): 0.1 to 1 µM
IC50 (IL-17A/F): > 1 µM
Compound: CCn1nccc1C(=O)N[C@H](c1cn2nc(CC3C[C@@H](C(F)(F)F)CNC3=O)cnc2n1)C1CCC(F)(F)CC1 (single isomer, unassigned) [Compound 5]

IC50 (IL-17A/A): < 0.1 µM
IC50 (IL-17A/F): 0.1 to 1 µM
Compound: CCn1nccc1C(=O)N[C@H](c1cn2nc(CC3C[C@@H](C(F)(F)F)CNC3=O)c(N3CCOCC3)nc2n1)C1CCC(F)(F)CC1 (single isomer, unassigned) [Compound 17]

IC50 (IL-17A/A): < 0.1 µM
IC50 (IL-17A/F): > 1 µM
Compound: O=C(N[C@H](c1cn2nc(CC3C[C@@H](C(F)(F)F)CNC3=O)c(N3CCOCC3)nc2n1)C1CCC(F)(F)CC1)c1nonc1C1CC1 (single isomer, unassigned) [Compound 20]

IC50 (IL-17A/A): < 0.1 µM
IC50 (IL-17A/F): > 1 µM
Compound: O=C(N[C@H](c1cn2nc(CC3C[C@@H](C(F)(F)F)CNC3=O)c(N3CCOCC3)nc2n1)C1CCC(F)(F)CC1)c1nonc1C1CC1 (single isomer, unassigned) [Compound 21]

IC50 (IL-17A/A): < 0.1 µM
IC50 (IL-17A/F): 0.1 to 1 µM
Compound: CCn1nccc1C(=O)N[C@H](c1cn2nc(CC3C[C@@H](C(F)(F)F)CNC3=O)c(N3CCOCC3)nc2n1)[C@H]1CC[C@H](C)CC1 (single isomer, unassigned) [Compound 22]

IC50 (IL-17A/A): 0.1 to 1 µM
IC50 (IL-17A/F): > 1 µM
Compound: O=C(N[C@H](c1cn2nc(C[C@@H]3C[C@@H](C(F)(F)F)CNC3=O)cnc2n1)C1CCC(F)(F)CC1)c1nonc1C1CC1 (single isomer, unassigned) [Compound 33]

IC50 (IL-17A/A): < 0.1 µM
IC50 (IL-17A/F): 0.1 to 1 µM
Compound: CCn1nccc1C(=O)N[C@H](c1cn2nc(C[C@H]3C[C@@H](C(F)(F)F)CNC3=O)c(C3CCOC3)nc2n1)C1CCC(F)(F)CC1 (single isomer, unassigned) [Compound 61]

IC50 (IL-17A/A): 0.1 to 1 µM
IC50 (IL-17A/F): > 1 µM
Compound: CCn1nccc1C(=O)N[C@H](c1cn2nc(C[C@@H]3CC(F)(F)CNC3=O)cnc2n1)C1CCC(F)(F)CC1 (single isomer, unassigned) [Compound 63]

IC50 (IL-17A/A): 0.1 to 1 µM
Compound: CC(F)(F)C(=O)N[C@H](c1cn2nc(C[C@H]3C[C@@H](C(F)(F)F)CNC3=O)c(C3CCOCC3)nc2n1)C1CCC(F)(F)CC1 [Compound 438, N—((S)-(4,4-difluorocyclohexyl)(2-(((3R,5R)-2-oxo-5-(trifluoromethyl)piperidin-3-yl)methyl)-3-(tetrahydro-2H-pyran-4-yl)imidazo[1,2-b][1,2,4]triazin-6-yl)methyl)-2,2-difluoropropanamide]
